Assay results taken from PubChem BioAssay (NCI).
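Growth conditions: 96-well plates. Treatment: test compound, 48 hours, 5 concentrations. Analysis: linear interpolation between bracketing concentrations; unreached endpoints set to highest concentration. GI50 is the concentration that inhibits growth by half. The concentration for full growth arrest is given as TGI.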

Key:
Assay in all cases: DTP human tumour cell line panel, 48 h
MDA-MB-468 breast = tested on: MDA-MB-468 breast
786-0 renal = tested on: 786-0 renal
A498 renal = tested on: A498 renal
A549 NSCLC = tested on: A549 NSCLC
ACHN renal = tested on: ACHN renal
BT-549 breast = tested on: BT-549 breast
CAKI-1 renal = tested on: CAKI-1 renal
CCRF-CEM leukemia = tested on: CCRF-CEM leukemia
COLO 205 colon = tested on: COLO 205 colon
DU-145 prostate = tested on: DU-145 prostate
EKVX NSCLC = tested on: EKVX NSCLC
HCC-2998 colon = tested on: HCC-2998 colon
HCT-116 colon = tested on: HCT-116 colon
HCT-15 colon = tested on: HCT-15 colon
HL-60(TB) leukemia = tested on: HL-60(TB) leukemia
HOP-62 NSCLC = tested on: HOP-62 NSCLC
HOP-92 NSCLC = tested on: HOP-92 NSCLC
HS 578T breast = tested on: HS 578T breast
HT29 colon = tested on: HT29 colon
IGROV1 ovarian = tested on: IGROV1 ovarian
K-562 leukemia = tested on: K-562 leukemia
KM12 colon = tested on: KM12 colon
LOX IMVI melanoma = tested on: LOX IMVI melanoma
M14 melanoma = tested on: M14 melanoma
MALME-3M melanoma = tested on: MALME-3M melanoma
MCF7 breast = tested on: MCF7 breast
MDA-MB-231 breast = tested on: MDA-MB-231 breast
MDA-MB-435 = tested on: MDA-MB-435
MOLT-4 leukemia = tested on: MOLT-4 leukemia
NCI-H226 lung = tested on: NCI-H226 lung
NCI-H23 lung = tested on: NCI-H23 lung
NCI-H460 lung = tested on: NCI-H460 lung
NCI-H522 lung = tested on: NCI-H522 lung
OVCAR-3 ovarian = tested on: OVCAR-3 ovarian
OVCAR-4 ovarian = tested on: OVCAR-4 ovarian
OVCAR-5 ovarian = tested on: OVCAR-5 ovarian
OVCAR-8 ovarian = tested on: OVCAR-8 ovarian
PC-3 prostate = tested on: PC-3 prostate
RPMI-8226 leukemia = tested on: RPMI-8226 leukemia
RXF 393 renal = tested on: RXF 393 renal
SF-268 CNS = tested on: SF-268 CNS
SF-295 CNS = tested on: SF-295 CNS
SF-539 CNS = tested on: SF-539 CNS
SK-MEL-2 melanoma = tested on: SK-MEL-2 melanoma
SK-MEL-28 melanoma = tested on: SK-MEL-28 melanoma
SK-MEL-5 melanoma = tested on: SK-MEL-5 melanoma
SN12C renal = tested on: SN12C renal
SNB-19 CNS = tested on: SNB-19 CNS
SNB-75 CNS = tested on: SNB-75 CNS
SR leukemia = tested on: SR leukemia
T-47D breast = tested on: T-47D breast
TK-10 renal = tested on: TK-10 renal
U251 CNS = tested on: U251 CNS
UO-31 renal = tested on: UO-31 renal

## C=C(C)[C@@H]1CC[C@]2(C(=O)N3CCN(C)CC3)CC[C@]3(C)[C@H](CC[C@@H]4[C@@]5(C)CC[C@H](O)C(C)(C)[C@@H]5CC[C@]43C)[C@@H]12
MDA-MB-468 breast
  GI50: 1.82 µM
  TGI: 3.63 µM

## COC1=CC(c2ccc[nH]2)=N/C1=C\c1[nH]c(C)c(C)c1CCC(=O)OCc1ccccc1
MDA-MB-468 breast
  GI50: 1.51 µM
  TGI: 5.31 µM

## CC/C(=C(/CC)c1ccc(O)cc1)c1ccc(O)cc1
MDA-MB-468 breast
  GI50: 2.71 µM
  TGI: 15.1 µM

## Cc1ccc(S(=O)(=O)NCCCNc2nc(Nc3ccc(N4CCN(C)CC4)cc3)nc3ccsc23)cc1
MDA-MB-468 breast
  GI50: 7.43 µM
  TGI: 20.6 µM

## Clc1ccc(Nc2ncnc3c2sc2ncccc23)c(Cl)c1
MDA-MB-468 breast
  GI50: 0.0548 µM
  TGI: 73.8 µM

## COc1ccc(/C=C/C(=O)c2ccccc2)cc1OC
MDA-MB-468 breast
  GI50: 5.25 µM
  TGI: 18.6 µM

## COc1ccc2c(c1)C(=O)c1c-2c(OCCN2CCCCC2)nc2ccc(OC)cc12
MDA-MB-468 breast
  GI50: 0.392 µM
  TGI: 2.49 µM

## COC(=O)C[Se]C(=O)Cc1c(C)n(C(=O)c2ccc(Cl)cc2)c2ccc(OC)cc12
MDA-MB-468 breast
  GI50: 1.47 µM
  TGI: 4 µM

## CCOC(=O)Nc1cc(-c2ccc(C)c(NS(C)(=O)=O)c2)nn2c(C)nnc12
MDA-MB-468 breast
  GI50: 0.557 µM
  TGI: 4.21 µM

## N/C(=N\C(N)=N\c1nc2ccccc2s1)c1ccnc(Br)c1
MDA-MB-468 breast
  GI50: 17.5 µM
  TGI: > 100 µM

## COc1cccc(/C=C2\CCc3ccccc3C2=O)c1
MDA-MB-468 breast
  GI50: 12.6 µM
  TGI: 29.3 µM

## CCN(CC)CCNC(=O)C(Cl)=C1C(Cl)=C(Cl)C(Cl)=C1Cl
MDA-MB-468 breast
  GI50: 2.08 µM
  TGI: 7.63 µM

## O=C1Nc2c(ccc(Cl)c2Cl)/C1=C\c1cc(C(F)(F)F)cc(C(F)(F)F)c1
MDA-MB-468 breast
  GI50: 1.51 µM
  TGI: 5.6 µM

## O=C1c2ccccc2-c2ccccc2C1(Cl)Cl
MDA-MB-468 breast
  GI50: 1.74 µM
  TGI: 3.3 µM

## CCN(CC)CC(O)c1cc(-c2ccc(Cl)cc2)nc2cc(Cl)ccc12 (centres undefined)
MDA-MB-468 breast
  GI50: 1.92 µM
  TGI: 3.53 µM

## Cn1cc(-c2ccc3nnc(C(F)(F)c4ccc5ncccc5c4)n3n2)cn1
MDA-MB-468 breast
  GI50: 22.5 µM
  TGI: > 100 µM

## CS(=O)(=O)c1ccc(-c2cnc(NCc3ccco3)n3cnnc23)cc1
MDA-MB-468 breast
  GI50: 27 µM
  TGI: > 100 µM

## COC1/C=C/OC2(C)Oc3c(C)c(O)c4c(O)c(c(C=NOC(c5ccccc5)c5ccccc5)c(O)c4c3C2=O)NC(=O)/C(C)=C/C=C/C(C)C(O)C(C)C(O)C(C)C(OC(C)=O)C1C (centres undefined)
MDA-MB-468 breast
  GI50: 1.05 µM
  TGI: 2.78 µM

## O=C(NC(Cc1ccccc1)C(=O)CCl)OCc1ccccc1 (centres undefined)
MDA-MB-468 breast
  GI50: 3.69 µM
  TGI: 15.4 µM

## Oc1[nH]c2ccccc2c1/C=c1/ccc2c(c1)N=C(c1cc(F)cc(F)c1)N=2
MDA-MB-468 breast
  GI50: 2.62 µM
  TGI: 8.64 µM

## COC[C@@H](CC(C)C)N=C1NC(=O)/C(=C/c2ccc3ncoc3c2)N1
786-0 renal
  GI50: 5.31 µM
  TGI: > 100 µM
A498 renal
  GI50: 1.34 µM
  TGI: 6.88 µM
A549 NSCLC
  GI50: 2.65 µM
  TGI: > 100 µM
ACHN renal
  GI50: 2.89 µM
  TGI: > 100 µM
BT-549 breast
  GI50: 2.44 µM
  TGI: 11.4 µM
CAKI-1 renal
  GI50: 2.59 µM
  TGI: > 100 µM
CCRF-CEM leukemia
  GI50: 2.6 µM
  TGI: 9.93 µM
COLO 205 colon
  GI50: 2.23 µM
  TGI: 8.06 µM
DU-145 prostate
  GI50: 3.74 µM
  TGI: > 100 µM
EKVX NSCLC
  GI50: 3.55 µM
  TGI: > 100 µM
HCC-2998 colon
  GI50: 7.43 µM
  TGI: > 100 µM
HCT-116 colon
  GI50: 2.13 µM
  TGI: > 100 µM
HCT-15 colon
  GI50: 2.43 µM
  TGI: > 100 µM
HL-60(TB) leukemia
  GI50: 3.48 µM
  TGI: 23.4 µM
HOP-62 NSCLC
  GI50: 2.89 µM
  TGI: > 100 µM
HOP-92 NSCLC
  GI50: 2.58 µM
  TGI: 9.48 µM
HS 578T breast
  GI50: 2.31 µM
  TGI: 9.22 µM
HT29 colon
  GI50: 4.3 µM
  TGI: 24.1 µM
IGROV1 ovarian
  GI50: 2.73 µM
  TGI: > 100 µM
K-562 leukemia
  GI50: 2.92 µM
  TGI: > 100 µM
KM12 colon
  GI50: 3.39 µM
  TGI: > 100 µM
LOX IMVI melanoma
  GI50: 2.87 µM
  TGI: > 100 µM
M14 melanoma
  GI50: 5.64 µM
  TGI: > 100 µM
MALME-3M melanoma
  GI50: 3.06 µM
  TGI: 50.5 µM
MCF7 breast
  GI50: 2.69 µM
  TGI: > 100 µM
MDA-MB-231 breast
  GI50: 5.64 µM
  TGI: > 100 µM
MDA-MB-435
  GI50: 4.33 µM
  TGI: > 100 µM
MDA-MB-468 breast
  GI50: 1.35 µM
  TGI: 6.99 µM
MOLT-4 leukemia
  GI50: 4.27 µM
  TGI: > 100 µM
NCI-H226 lung
  GI50: 2.18 µM
  TGI: > 100 µM
NCI-H23 lung
  GI50: 2.21 µM
  TGI: 8.75 µM
NCI-H460 lung
  GI50: 2.67 µM
  TGI: > 100 µM
NCI-H522 lung
  GI50: 2.13 µM
  TGI: 8.52 µM
OVCAR-3 ovarian
  GI50: 1.08 µM
  TGI: 4.69 µM
OVCAR-4 ovarian
  GI50: 10.2 µM
  TGI: > 100 µM
OVCAR-5 ovarian
  GI50: 3.52 µM
  TGI: > 100 µM
OVCAR-8 ovarian
  GI50: 2.88 µM
  TGI: > 100 µM
PC-3 prostate
  GI50: 5.72 µM
  TGI: > 100 µM
RPMI-8226 leukemia
  GI50: 3.19 µM
  TGI: > 100 µM
RXF 393 renal
  GI50: 2.72 µM
  TGI: 9.18 µM
SF-268 CNS
  GI50: 3.65 µM
  TGI: 57.3 µM
SF-295 CNS
  GI50: 3.65 µM
  TGI: > 100 µM
SF-539 CNS
  GI50: 0.618 µM
  TGI: 7.11 µM
SK-MEL-2 melanoma
  GI50: 1.93 µM
  TGI: 4.36 µM
SK-MEL-28 melanoma
  GI50: 2.66 µM
  TGI: 8.79 µM
SK-MEL-5 melanoma
  GI50: 2.44 µM
  TGI: 12 µM
SN12C renal
  GI50: 3.12 µM
  TGI: > 100 µM
SNB-19 CNS
  GI50: 1.99 µM
  TGI: > 100 µM
SNB-75 CNS
  GI50: 0.0317 µM
  TGI: 4.01 µM
SR leukemia
  GI50: 2.87 µM
  TGI: > 100 µM
T-47D breast
  GI50: 2.2 µM
  TGI: 9.96 µM
TK-10 renal
  GI50: 3.24 µM
  TGI: > 100 µM
U251 CNS
  GI50: 2.72 µM
  TGI: > 100 µM
UO-31 renal
  GI50: 2.67 µM
  TGI: 35.3 µM

## O=C(Nc1ccc(Cl)cc1)c1cc2ccccc2cc1OP(=O)(O)O
MDA-MB-468 breast
  GI50: 4.28 µM
  TGI: 29.3 µM

## COc1ccc(Nc2ncccc2C(=O)NCc2cn(Cc3cccc(Oc4ccccc4)c3)nn2)c(OC)c1
MDA-MB-468 breast
  GI50: 0.77 µM

## CNC(=O)c1cc(Oc2ccc3nc(NC(=O)Nc4cc(C(F)(F)F)cc(C(F)(F)F)c4)sc3c2)ccn1
MDA-MB-468 breast
  GI50: 0.399 µM
  TGI: 1.75 µM

## O=C(Nc1nc(-c2ccccc2Cl)cs1)c1cc(-c2ccc(Cl)cc2)nc2ccc(Cl)cc12
MDA-MB-468 breast
  GI50: 5.6 µM
  TGI: 79.6 µM

## Cc1ccnc(NC(c2ccccc2)c2ccc3cccnc3c2O)c1 (centres undefined)
MDA-MB-468 breast
  GI50: 3.25 µM
  TGI: 14.3 µM

## COc1cc(OC)c(/C=C/C(=O)c2c(O)cc(OC)c(C3CCN(C)CC3)c2OC)c(OC)c1
MDA-MB-468 breast
  GI50: 1.54 µM
  TGI: 3.03 µM

## CNC(=O)c1cc(Oc2cccc3nc(NC(=O)Nc4ccc(F)cc4F)ccc23)ccn1
MDA-MB-468 breast
  GI50: 1.83 µM
  TGI: > 50 µM

## O=[N+]([O-])c1cccc([I+]c2ccccc2)c1
MDA-MB-468 breast
  GI50: 2.1 µM
  TGI: 17.4 µM

## Nc1nc(Cl)nc2c1ncn2C1OC(CO)C(O)C1O (centres undefined)
MDA-MB-468 breast
  GI50: > 100 µM
  TGI: > 100 µM

## Cc1cc2nc3c4cc([N+](=O)[O-])ccc4n(CCN(C)C)c3nc2cc1C
MDA-MB-468 breast
  GI50: 0.374 µM
  TGI: 1.38 µM

## Cc1nc2cc(Nc3nc(Nc4ccc(F)cc4)nc(N4CCCC4)n3)ccc2n1Cc1ccccc1
MDA-MB-468 breast
  GI50: 1.61 µM
  TGI: 3.48 µM
